The target of one experiment is T1, SIRT1 K444E (Homo sapiens, UniProt Q96EB6, K444E).
T1 sequence (Q96EB6 2-747 K444E): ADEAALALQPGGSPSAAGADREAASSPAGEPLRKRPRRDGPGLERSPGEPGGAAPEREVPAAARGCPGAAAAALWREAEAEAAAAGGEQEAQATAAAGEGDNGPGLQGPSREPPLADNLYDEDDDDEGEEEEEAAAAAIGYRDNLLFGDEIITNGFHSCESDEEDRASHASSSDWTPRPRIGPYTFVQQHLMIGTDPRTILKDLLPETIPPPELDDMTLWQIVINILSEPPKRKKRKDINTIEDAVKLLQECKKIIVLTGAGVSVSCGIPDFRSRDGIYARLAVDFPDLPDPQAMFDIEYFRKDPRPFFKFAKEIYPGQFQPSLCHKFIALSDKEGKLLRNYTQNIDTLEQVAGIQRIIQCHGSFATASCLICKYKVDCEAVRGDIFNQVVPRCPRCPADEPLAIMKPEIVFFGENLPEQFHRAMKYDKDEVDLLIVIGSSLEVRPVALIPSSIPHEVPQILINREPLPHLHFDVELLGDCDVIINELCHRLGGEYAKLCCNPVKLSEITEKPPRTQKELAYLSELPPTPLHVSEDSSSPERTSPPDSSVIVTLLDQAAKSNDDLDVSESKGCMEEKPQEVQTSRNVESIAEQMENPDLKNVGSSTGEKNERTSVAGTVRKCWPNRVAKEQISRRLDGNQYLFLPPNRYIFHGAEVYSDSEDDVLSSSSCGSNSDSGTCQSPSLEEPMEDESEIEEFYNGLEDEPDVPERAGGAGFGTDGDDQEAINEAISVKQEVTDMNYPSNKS
Kind of experiment: steady-state kinetics. The experiment is classed as biochemical.

The next experiment addresses T2, SIRT1 (Homo sapiens, UniProt Q96EB6).
T2 sequence (Q96EB6 2-747): T1 sequence (Q96EB6 2-747 K444E) with E443K
Briefly: SIRT1 activation assay. The experiment is classed as biochemical.

Positions count from the first letter of the chain named.

As for `NC(=O)c1ccc[n+]([C@@H]2O[C@H](COP(=O)([O-])OP(=O)(O)OC[C@H]3O[C@@H](n4cnc5c(N)ncnc54)[C@H](O)[C@@H]3O)[C@@H](O)[C@H]2O)c1` [NAD^+], the “steady-state kinetics (KM, kcat), FDL SIRT1 assay with varied NAD+” value on SIRT1 K444E is “K444E SIRT1 is catalytically more active than WT (higher kcat) and has a significantly lower KM for both substrates”. `Oc1ccc(/C=C/c2cc(O)cc(O)c2)cc1` [resveratrol]: the “SIRT1 activation assay (Fig. S4C); activation peak concentration” value at SIRT1 is 1 mM.

(Values after paper PMC5407064 (Cell reports, 2017).)
